How the values were obtained:
Type in all cases: cell-based
MDA-MB-468 cell line = test: CellTiter-Glo cell viability assay after docetaxel, MDA-MB-468
Protocol: (§1) MDA-MB-231, DU4475, MDA-MB-436, and MDA-MB-157 cell lines were purchased from the ATCC. MDA-MB-468, HCC1937, HS578T, and HCC38 cell lines were obtained from the Korea Cell Bank. MDA-MB-157 cell line was cultured in a Leibovitz's L15 culture medium supplemented with 10% fetal bovine serum. The MDA-MB-436 cell line was cultured in a Leibovitz's L15 culture medium supplemented with 10% fetal bovine serum and 0.026 units/ml units insulin. The MDA-MB-231 cell line, the MDA-MB-468 cell line, and the HS578T cell line were each cultured in a DMEM culture medium supplemented with 10% fetal bovine serum in 5% CO2. The remaining cell lines were each cultured in a RPMI-1640 culture medium supplemented with 10% fetal bovine serum in 5% CO2.
(§2) In the present disclosure, docetaxel was used to find genes related to resistance to taxane-based neoadjuvant chemotherapy (NAC). Docetaxel was purchased at Sigma-Aldrich, and then, dissolved according to the instructions of the manufacturer. The cell lines were collected using trypsin treatment, counted with a hemocytometer, and plated for 14 hours at a density of 3,000 cells/well in a 96-well plate. Afterwards, the solvent was replaced with docetaxel at different concentrations (e.g., 0 nM, 0.01 nM, 0.1 nM, 1 nM, 10 nM, and 100 nM), 48 hours after exposure to docetaxel, cell viability experiments were performed using the CellTiter-Glo Luminescent Cell Viability Assay according to the protocol of the manufacture. The CellTiter-Glo Luminescent Cell Viability Assay is a method of determining the number of cells present in a culture medium depending on the amount of ATP in a culture medium. In summary, the same amount of 100 μl of CellTiter-Glo assay reagents were added to each well, incubated for 10 minutes at room temperature, and then, measured according to the luminometry. The experiment was repeated twice, and the 50% inhibitory concentration of each cell line was measured by non-linear regression analysis.

HS578T cell line = test: CellTiter-Glo cell viability assay after docetaxel, HS578T
Protocol: as §1, §2

DU4475 cell line = test: CellTiter-Glo cell viability assay after docetaxel, DU4475
Protocol: as §1, §2

MDA-MB-231 cell line = test: CellTiter-Glo cell viability assay after docetaxel, MDA-MB-231
Protocol: as §1, §2

HCC38 cell line = test: CellTiter-Glo cell viability assay after docetaxel, HCC38
Protocol: as §1, §2

MDA-MB-157 cell line = test: CellTiter-Glo cell viability assay after docetaxel, MDA-MB-157; details: MDA-MB-15T
Protocol: as §1, §2

HCC1937 cell line = test: CellTiter-Glo cell viability assay after docetaxel, HCC1937
Protocol: as §1, §2

MDA-MB-436 cell line = test: CellTiter-Glo cell viability assay after docetaxel, MDA-MB-436
Protocol: as §1, §2

IC50 (MDA-MB-468 cell line; Homo sapiens, MDA-MB-468, 48 hours exposure): 1.81 nM
IC50 (MDA-MB-231 cell line; Homo sapiens, MDA-MB-231, 48 hours exposure): 29.1 nM
IC50 (HCC38 cell line; Homo sapiens, HCC38, 48 hours exposure): > 100 nM
IC50 (MDA-MB-157 cell line; Homo sapiens, MDA-MB-157, 48 hours exposure): > 100 nM
IC50 (HCC1937 cell line; Homo sapiens, HCC1937, 48 hours exposure): > 100 nM
IC50 (MDA-MB-436 cell line; Homo sapiens, MDA-MB-436, 48 hours exposure): > 100 nM
SMILES: CC(=O)O[C@@]12CO[C@@H]1C[C@H](O)[C@@]1(C)C(=O)[C@H](O)C3=C(C)[C@@H](OC(=O)[C@H](O)[C@@H](NC(=O)OC(C)(C)C)c4ccccc4)C[C@@](O)([C@@H](OC(=O)c4ccccc4)[C@H]21)C3(C)C [Docetaxel, docetaxel]
Survival fraction (MDA-MB-468 cell line; MDA-MB-468, 50 nM): 0.27
Survival fraction (MDA-MB-468 cell line; MDA-MB-468, 100 nM): 0.26
Survival fraction (HS578T cell line; 50 nM): 0.32
Survival fraction (HS578T cell line; 100 nM): 0.29
IC50 (HS578T cell line; Homo sapiens, Hs-578T, 48 hours exposure): 11.1 nM
Survival fraction (DU4475 cell line; DU4475, 50 nM): 0.37
Survival fraction (DU4475 cell line; DU4475, 100 nM): 0.27
IC50 (DU4475 cell line; Homo sapiens, DU-4475, DU4475, 48 hours exposure): 11.6 nM
Survival fraction (MDA-MB-231 cell line; MDA-MB-231, 50 nM): 0.47
Survival fraction (MDA-MB-231 cell line; MDA-MB-231, 100 nM): 0.35
Survival fraction (HCC38 cell line; HCC38, 50 nM): 0.57
Survival fraction (HCC38 cell line; HCC38, 100 nM): 0.53
Survival fraction (MDA-MB-157 cell line; 50 nM): 0.65
Survival fraction (MDA-MB-157 cell line; 100 nM): 0.65
Survival fraction (HCC1937 cell line; HCC1937, 50 nM): 0.76
Survival fraction (HCC1937 cell line; HCC1937, 100 nM): 0.70
Survival fraction (MDA-MB-436 cell line; MDA-MB-436, 50 nM): 0.81
Survival fraction (MDA-MB-436 cell line; MDA-MB-436, 100 nM): 0.75

— patent publication US11339446B2, “Biomarker for measurement of response and prognosis of triple-negative breast cancer to anticancer agent” (SEOUL NATIONAL UNIVERSITY R&DB FOUNDATION, priority 2017, dated 2022)
